Assay results taken from US20100152302A1, “NOVEL CRYSTALLINE FORMS OF ATOVAQUONE” (HETERO DRUGS LIMITED, priority 2007, published 2010).
Values joined by “and” are separate entries in the source; they are usually repeats but may differ in a detail not shown here. Identical values can stand only once.

How the values were obtained:
[1] = cited from earlier work
[2] = Specific surface area by B.E.T. nitrogen absorption analysis; assay type: physicochemical; details: isolated crystalline solid of the example, after drying or spray drying
From the text: Specific surface area is defined in units of square meters per gram (m^2/g). It is usually measured by nitrogen absorption analysis. In this analysis, nitrogen is absorbed on the surface of the substance. The amount of the absorbed nitrogen (as measured during the absorption or the subsequent desorption process) is related to the surface area via a formula known as the B.E.T. formula.

Structure (SMILES)	solubility in chloroform ([1]; chloroform)	solubility in water ([1]; water)	Specific Surface Area [2]
O=C1C(O)=C([C@H]2CC[C@H](c3ccc(Cl)cc3)CC2)C(=O)c2ccccc21 [Atovaquone, trans-2-[4-(4-chlorophenyl)cyclohexyl]-3-hydroxy-1,4-naphthoquinone]	soluble	practically insoluble	–
O=C1C(O)=C([C@H]2CC[C@H](c3ccc(Cl)cc3)CC2)C(=O)c2ccccc21 [atovaquone crystalline form B, trans-2-[4-(4-chlorophenyl)cyclohexyl]-3-hydroxy-1,4-naphthoquinone]	–	–	2.84 m^2/g and 3.12 m^2/g
O=C1C(O)=C([C@H]2CC[C@H](c3ccc(Cl)cc3)CC2)C(=O)c2ccccc21 [atovaquone Form I, trans-2-[4-(4-chlorophenyl)cyclohexyl]-3-hydroxy-1,4-naphthoquinone]	–	–	0.54 m^2/g
O=C1C(O)=C([C@H]2CC[C@H](c3ccc(Cl)cc3)CC2)C(=O)c2ccccc21 [atovaquone crystalline form A, trans-2-[4-(4-chlorophenyl)cyclohexyl]-3-hydroxy-1,4-naphthoquinone]	–	–	0.76 m^2/g
